Values quoted from earlier work in patent US20230218659A1, “Selenium-Based Compositions and Therapeutic Methods” (Hess Pharmaceuticals, Inc, priority 2020, published 2023).

Settings: 200 µg/day selenium with or without 400 IU/day vitamin E; 35,533 men aged 50 years or older; after 5.5 years

SMILES: [Se] [selenium]
- association between prostate cancer risk and supplementation: no association
